Measured values published in patent US20230075822A1, “USE OF CASTALAGIN OR ANALOGS THEREOF FOR ANTI-CANCER EFFICACY AND TO INCREASE THE RESPONSE TO IMMUNE CHECKPOINT INHIBITORS” (THE ROYAL INSTITUTION FOR THE ADVANCEMENT OF …, priority 2020, published 2023).

Legend:
CD8^+ T cells = assay: Flow cytometry immune profiling of TILs, MCA-205 tumor model; assay type: in vivo, C57BL/6 mice; settings: SPF mice, castalagin experiment
Procedure: FIGS. 7A-C are graphs showing the results of immune cell profiling by flow cytometry in the murine MCA-205 (FIGS. 7A-B) or E0771 (FIG. 7C) tumor model treated with anti-PD-1 and/or CC. The tumors and the spleens were harvested 9 days or 19 days after the first injection of anti-PD-1 mAb into mice bearing MCA-205 or E0771 tumors, respectively. Excised tumors were cut into small pieces and digested in RPMI medium containing Liberase 25 μg/mL (Roche) and DNase1 at 150 Ul/mL (Roche) for 30 minutes at 37° C. and then crushed and filtered twice using 100 and 70 μm cell strainers (Becton & Dickinson). Spleens were crushed in RPMI medium and subsequently filtered through a 100 μm cell strainer. Two million tumor cells or splenocytes were pre-incubated with purified anti-mouse CD16/CD32 (clone 93; eBioscience) for 30 minutes at 4° C., before membrane staining (CD45, CD3, CD4, CD8, PD1, PDL1, ICOS, CXCR3, CCR9, CD45RB, CD62L, CD44). For intracellular staining, the Foxp3 staining kit (eBioscience) was used. Dead cells were excluded using the Live/Dead Fixable aqua blue dead cell stain kit (Life Technologies). […] FIG. 7C is a graph showing the activation of intratumoral CD8^+ T cells (as assessed by MFI of ICOS^+CD8^+ T cells by flow cytometry) in TILs in the E0771 tumor model post-treatment with CC +/−αPD-1. […]

MCA-205 sarcoma = assay: Avatar mice: FMT from responder (R) / non-responder (NR) NSCLC patients, MCA-205 tumors; assay type: in vivo, C57BL/6 mice
Procedure: FIG. 5A is a schematic of the experimental design of avatar mice experiments. FMT from feces samples from Non-responders (NR) and responders (R) Non-small cell lung cancer (NSCLC) patients were individually performed after 3 days of ATB in SPF C57BI6 mice. Two weeks later, MCA-205 sarcoma cells were inoculated and daily gavage with water or CC were performed in combination with sequential injections of αPD-1 or IsoPD-1 mAb.
FIG. 11A is a graph showing the effect of castalagin (0.85 mg/kg) in the presence or not of anti-PD-1 on tumor growth kinetics in the in the ATB-avatar model after FMT from 1 NR NSCLC patient with daily gavage with castalagin or water in combination with αPD1 mAb or IsoPD-1. Unpaired t-tests were used. Means ±SEM are represented. *p<0.05. […]
Fecal microbiota transplantation (FM7) experiments. FMT was performed as previously published Routy et al. by thawing fecal material from 5 different Non-Small cell lung cancer (NSCLC) patients amenable to immune checkpoint blockers (ICI after appropriate ethics approval at the Centre de recherche du Centre hospitalier de l'Université de Montréal (CRCHUM) in Montreal. Patient records were retrospectively analyzed to identify their response status. Two weeks after FMT, tumor cells were injected subcutaneously and mice were treated with anti-PD-1 mAb or isotype control +/− CC, castalagin or water as described above.

## O=C1OC[C@H]2OC(=O)c3cc(O)c(O)c(O)c3-c3c(O)c(O)c(O)c4c3C(=O)O[C@H]([C@H]3OC(=O)c5c-4c(O)c(O)c(O)c5[C@@H]3O)[C@@H]2OC(=O)c2cc(O)c(O)c(O)c2-c2c1cc(O)c(O)c2O [castalagin, Castalagin]
CD8^+ T cells
  TCM CD8^+ T cells (CD45RB^−CD62L^+) in TILs: upregulation of Tom CD8^+ T cells
MCA-205 sarcoma; castalagin 0.85 mg/kg + αPD-1, post-FMT from NR NSCLC patients
  antitumor activity (tumor growth): additive effect when combined with αPD-1
MCA-205 sarcoma; castalagin 0.85 mg/kg alone, post-FMT from NR NSCLC patients, ATB and GF conditions
  antitumor activity (tumor growth): able to restore antitumor activity
